Consider one molecule from PMC5855801, “Benzothiophenone Derivatives Targeting Mutant Forms of Estrogen Receptor-α in Hormone-Resistant Breast Cancers” (International Journal of Molecular Sciences, 2018).

The subject of assay [1] is mutant ERα (L536Q, Y537S, Y537C, Y537N, D538G, Y537S/D538G, S463P/Y537N). Put plainly: Luciferase reporter assay with mutant ERα in transfected MDA-MB-231 cells. As to conditions: all seven mutant forms, two-fold dilution starting at 50 µM, read-out: IC50 against constitutively-active mutant forms of ERα (luciferase). In kind it is cell-based, human. As for the experimental part: Figure 5 Predicted MD simulations and experimental effect of VPC-16606 on mutant forms of ERα. […] (C) E2 responsiveness of the synthesized mutants. (D) pcDNA3.1 plasmid encoding either the full-length WT or mutant forms of ERα was transfected into MDA-MB-231 cells along with the 3X-ERE-TATA luciferase reporter plasmid. The cells were treated with a two-fold dilution of VPC-16606 starting at 50 µM. […] Data points are expressed as the percentage of luciferase activity relative to DMSO control. Data were fitted using the log10 of concentration of the inhibitors vs. the response with GraphPad Prism 6. Error bars indicate the standard error of the mean (SEM) for 3 independent experiments performed in triplicates.
To test this hypothesis, a site-directed mutagenesis study was initiated on WT-ERα. MDA-MB-231 cells that were transfected with plasmids encoding either WT or mutant ERα (L536Q, Y537S, Y537C, Y537N, D538G, Y537S/D538G, S463P/Y537N) along with an E2-responsive luciferase reporter plasmid and a constitutively-active Renilla reporter plasmid. The cells were treated with VPC-16606 with two-fold dilution starting at 50 µM. […] This is particularly important because they corroborate the idea that such clinically-relevant mutant forms of the receptor, which cause the receptor to be E2 independent, can be inhibited by targeting an alternative functional site on the receptor. […]
In general terms: In a reporter assay the amount or activity of a reporter protein is the signal.

Assay [2] has as its system TamR3 cells (tamoxifen-resistant MCF7-derived). Put plainly: Presto Blue cell viability assay, TamR3. In kind it is cell-based, human. As to conditions: TamR3, 96 h, two-fold dilution starting at 50 µM. As for the experimental part: The Presto Blue cell viability assay was used to assess the growth inhibitory potential of VPC-16606 on ERα^+ T47D, MCF7, ZR75-1 and TamR3 cells. They were treated for 96 h with a two-fold dilution range of the compound starting at 50 µM.
Cell viability was determined using the Presto Blue cell viability assay (Thermo Fisher Scientific, Waltham, MA, USA). Cells were seeded in clear bottom black-walled 96-well plates at a density of 5 × 10^3 cells/well in 100 μL of their respective media. On the following day, the cells were treated with test compounds (0.001–22.5 μM) in the presence of 1 nM E2 and incubated at 37 °C. After 96 h, 30 μL of Presto Blue reagent was added and incubated for 10 min at 37 °C. The fluorescent signal from viable cells was measured at 590 nm.

A word on the IC50: it is the midpoint of a concentration-inhibition curve. As to `CC(=O)N(/N=C1\Sc2c(C)cccc2C1=O)c1ccccc1Cl` [VPC-16606], in assay [1], the IC50 lay within 0.5 to 1 µM. For the same molecule, in assay [2], the “Cell growth (Presto Blue viability)” value was “significantly reduce the growth”.
